US20260234144A1 (TAY THERAPEUTICS LIMITED, priority 2023, published 2026)

System: R223X stop codon in the mutated luciferase gene, ADXC8 luciferase reporter cell line
Assay: cells
Format: cell-based
Conditions: ADXC8 cells, 24 hours; for Emax / EC (100% of 200 uM G418 response): 24 h; for Emax: read-out: Fold Over Control, maximum fold response relative to 200 μM G418; for EC (100% of 200 uM G418 response): read-out: pC100%, negative logarithm of the concentration giving the same response as 200 μM G418; for pC100%: negative logarithm of the concentration giving the same response as 200 μM G418

Row | SMILES | Emax [%] | EC (100% of 200 uM G418 response) [µM] | pC100%
1 | CNc1c(C)c(NCCCN(C)C)nc2nc(C)cc(C)c12 [Example 522, N^2-(3-(dimethylamino)propyl)-N^4,3,5,7-tetramethyl-1,8-naphthyridine-2,4-diamine] | 0 to 100 | > 31.6 | –
2 | CNc1nc(N[C@H]2CN(C(C)C)C[C@H]2F)nc2nc(C)cc(C)c12 [Example 523, N^2-((3S,4R)-4-fluoro-1-isopropylpyrrolidin-3-yl)-N^4,5,7-trimethylpyrido[2,3-d]pyrimidine-2,4-diamine] | 100 to 3000 | 1 to 10 | –
3 | CNc1cc(C)c2c(NC)nc(N[C@@H]3CCN(C)C3)nc2n1 [Example 524, (R)—N^4,N^7,5-trimethyl-N^2-(1-methylpyrrolidin-3-yl)pyrido[2,3-d]pyrimidine-2,4,7-triamine] | 100 to 3000 | 1 to 10 | –
4 | COc1cc(C)nc2nc(N[C@@H]3CCN(C)C3)nc(N)c12 [Example 525, (R)-5-methoxy-7-methyl-N^2-(1-methylpyrrolidin-3-yl)pyrido[2,3-d]pyrimidine-2,4-diamine] | 100 to 3000 | 10 to 100 | –
5 | Cc1nc2nc(NC3CCN(Cc4ccc(C#N)cc4F)CC3)nc(N)c2c2c1CCC2 [Example 527] | 100 to 3000 | 0.1 to 1 | –
6 | Cc1nc2nc(NC3CCN(Cc4ccc(C#N)c(F)c4)CC3)nc(N)c2c2c1CCC2 [Example 528] | 100 to 3000 | 0.1 to 1 | –
7 | Cc1nc2nc(NC3CCN(Cc4ccncc4O)CC3)nc(N)c2c2c1CCC2 [Example 530] | 100 to 3000 | 0.1 to 1 | –
8 | Cc1cc(C)c2c(N)nc(NC3CCN(Cc4ccncc4C(F)F)CC3)nc2n1 [Example 533] | 100 to 3000 | 10 to 100 | –
9 | Cc1nc2nc(NC3CCN(Cc4ccc(C#N)cc4O)CC3)nc(N)c2c2c1CCC2 [Example 534] | 100 to 3000 | 0.1 to 1 | –
10 | Cc1nc2nc(NC3CCN(Cc4cc(F)ccc4O)CC3)nc(N)c2c2c1CCC2 [Example 535] | 100 to 3000 | 0.1 to 1 | –
11 | Cc1nc2nc(NC3CCN(Cc4cc(F)cc(F)c4O)CC3)nc(N)c2c2c1CCC2 [Example 536] | 100 to 3000 | 1 to 10 | –
12 | Cc1nc2nc(NC3CCN(Cc4ccccc4O)CC3)nc(N)c2c2c1CCC2 [Example 537] | 100 to 3000 | 0.1 to 1 | –
13 | Cc1cc(C)c2c(N)nc(NC3CCN(Cc4c(C)cccc4O)CC3)nc2n1 [Example 538] | 100 to 3000 | 0.1 to 1 | –
14 | Cc1cc(C)c2c(N)nc(NC3CCN(Cc4cccc(C)c4O)CC3)nc2n1 [Example 539] | 100 to 3000 | 0.1 to 1 | –
15 | Cc1ccc(CN2CCC(Nc3nc(N)c4c(C)cc(C)nc4n3)CC2)c(O)c1 [Example 540] | 100 to 3000 | 1 to 10 | –
16 | Cc1cc(C)c2c(N)nc(NC3CCN(Cc4cc(C(F)(F)F)ccc4O)CC3)nc2n1 [Example 541] | 0 to 100 | > 31.6 | –
17 | Cc1cc(C)c2c(N)nc(NC3CCN(Cc4cc(Cl)ccc4O)CC3)nc2n1 [Example 542] | 100 to 3000 | 1 to 10 | –
18 | Cc1ccc(CN2CCC(Nc3nc(N)c4c(C)cc(C)nc4n3)CC2)cc1 [Example 543] | 100 to 3000 | 1 to 10 | –
19 | CNc1nc(NC2CCN(Cc3ccccc3O)CC2)nc2nc(C)c3c(c12)CCC3 [Example 544] | 100 to 3000 | 0.1 to 1 | –
20 | CNc1nc(N[C@@H]2CNC[C@H]2O)nc2nc3c(c(C)c12)CCC3 [Example 546] | 100 to 3000 | 1 to 10 | –
21 | Cc1c2c(nc3nc(N[C@H]4CN(C)C[C@@H]4O)nc(N(C)C)c13)CCC2 [Example 547] | 100 to 3000 | 10 to 100 | –

Row | SMILES | Emax [%] | EC (100% of 200 uM G418 response) [µM] | pC100%
22 | Cc1ccc(O)c(CN2CCC(Nc3nc(N)c4c(C)cc(C)nc4n3)CC2)c1 [Example 548] | 100 to 3000 | 0.1 to 1 | –
23 | Cc1cccc(CN2CCC(Nc3nc(N)c4c(C)cc(C)nc4n3)CC2)c1 [Example 549] | 100 to 3000 | 1 to 10 | –
24 | Cc1cc(C)c2c(N)nc(NC3CCN(Cc4ccccc4C)CC3)nc2n1 [Example 550] | 100 to 3000 | 1 to 10 | –
25 | Cc1cc(C)c2c(N)nc(NC3CCN(Cc4c(F)cc(C#N)cc4F)CC3)nc2n1 [Example 551] | 100 to 3000 | 10 to 100 | –
26 | CNc1nc(NC2CCNCC2)nc2nc(C)c3c(c12)CCC3 [Example 552] | – | 0.1 to 1 | –
27 | Cc1c2c(nc3nc(N[C@H]4CNC[C@@H]4O)nc(N(C)C)c13)CCC2 [Example 553] | 100 to 3000 | 10 to 100 | –
28 | Cc1nc2nc(NC3CCN(Cc4ccc(C#N)cc4)CC3)nc(N)c2c2c1CCC2 [Example 554] | 100 to 3000 | 0.1 to 1 | –
29 | Cc1c2c(nc3nc(NC4CCN(Cc5ccc(C#N)cc5)CC4)nc(NCCO)c13)CCC2 [Example 555] | 100 to 3000 | 0.1 to 1 | –
30 | Cc1nc2nc(NC3CCNCC3)nc(N)c2c2c1CCC2 [Example 556] | 100 to 3000 | 0.1 to 1 | –
31 | Cc1cc(C)c2c(N)nc(N[C@@H]3CCN(Cc4ccc(C#N)cc4)C[C@H]3O)nc2n1 [Example 558] | 100 to 3000 | 1 to 10 | –
32 | Cc1cc(C)c2c(N)nc(NC3CCN(Cc4ccncc4Br)CC3)nc2n1 [Example 559] | 100 to 3000 | 1 to 10 | –
33 | CC(=O)Nc1cnccc1CN1CCC(Nc2nc(N)c3c(C)cc(C)nc3n2)CC1 [Example 560] | 100 to 3000 | 1 to 10 | –
34 | Cc1cc(C)c2c(N)nc(NC3CCN(Cc4ccc(C#N)cc4Br)CC3)nc2n1 [Example 561] | 100 to 3000 | 1 to 10 | –
35 | Cc1cc(C)c2c(N)nc(N[C@@H]3CCN(Cc4ccc(C#N)cc4)C[C@@H]3O)nc2n1 [Example 562] | 100 to 3000 | 1 to 10 | –
36 | [2H]C([2H])([2H])Nc1nc(N[C@H]2CNC[C@@H]2O)nc2nc3c(c(C)c12)CCC3 [Example 563] | – | 0.1 to 1 | –
37 | Cc1cc(C)c2c(N)nc(NC3CCN(Cc4ccncc4O)CC3)nc2n1 [Example 564] | 100 to 3000 | 1 to 10 | –
38 | Cc1cc(C)c2c(N)nc(NC3CCN(Cc4cccc(F)c4O)CC3)nc2n1 [Example 566] | 100 to 3000 | 0.1 to 1 | –
39 | Cc1cc(C)c2c(N)nc(NC3CCN(Cc4ccc(C#N)cc4O)CC3)nc2n1 [Example 567] | 100 to 3000 | 0.1 to 1 | –
40 | Cc1cc(C)c2c(N)nc(NC3CCN(Cc4cnn(C)c4)CC3)nc2n1 [Example 568] | 100 to 3000 | 1 to 10 | –
41 | Cc1cc(C)c2c(N)nc(NC3CCN(Cc4cc(F)cc(F)c4O)CC3)nc2n1 [Example 569] | 100 to 3000 | 1 to 10 | –
42 | Cc1cc(C)c2c(N)nc(NC3CCN(Cc4ccc(C#N)c(F)c4)CC3)nc2n1 [Example 570] | 100 to 3000 | 0.1 to 1 | –

Row | SMILES | Emax [%] | EC (100% of 200 uM G418 response) [µM] | pC100%
43 | Cc1cc(C)c2c(N)nc(NC3CCN(Cc4ccc(C#N)cc4F)CC3)nc2n1 [Example 571] | 100 to 3000 | 1 to 10 | –
44 | Cc1cc(C)c2c(N)nc(NC3CCN(Cc4cn[nH]c4)CC3)nc2n1 [Example 572] | 100 to 3000 | 1 to 10 | –
45 | Cc1cc(C)c2c(N)nc(N[C@@H]3CCNC[C@@H]3O)nc2n1 [Example 573] | – | 1 to 10 | –
46 | Cc1cc(C)c2c(N)nc(N[C@H]3CCN(Cc4ccc(C#N)cc4)C[C@@H]3F)nc2n1 [Example 574] | 100 to 3000 | 10 to 100 | –
47 | Cc1cc(C)c2c(N)nc(N[C@@H]3CCN(Cc4ccc(C#N)cc4)C[C@@H]3F)nc2n1 [Example 575] | 100 to 3000 | 10 to 100 | –
48 | CNc1nc(NC2CCN(Cc3ccccc3O)CC2)nc2nc(C)cc(C)c12 [Example 579] | 100 to 3000 | 0.1 to 1 | –
49 | CNc1nc(NC2CCN(Cc3ccc(C#N)cc3)CC2)nc2nc(C)cc(C)c12 [Example 580] | 100 to 3000 | 1 to 10 | –
50 | Cc1c2c(nc3nc(N[C@@H]4CCCNC4)nc(N)c13)CCC2 [Example 581] | 100 to 3000 | 0.01 to 0.1 | –
51 | Cc1c2c(nc3nc(N[C@H]4CNC[C@@H]4O)nc(N)c13)CCC2 [Example 582] | 100 to 3000 | 0.01 to 0.1 | –
52 | [2H]C([2H])([2H])N1CCC(Nc2nc(N)c3c(C)cc(C)nc3n2)CC1 [Example 584] | – | 1 to 10 | –
53 | Cc1cc(C)c2c(N)nc(N[C@@H]3CCNC[C@H]3F)nc2n1 [Example 585] | 100 to 3000 | 1 to 10 | –
54 | Cc1cc(C)c2c(N)nc(N[C@@H]3CCNC[C@@H]3F)nc2n1 [Example 586] | – | 1 to 10 | –
55 | Cc1cc(C)c2c(N)nc(N[C@H]3CCNC[C@H]3F)nc2n1 [Example 587] | 100 to 3000 | 1 to 10 | –
56 | CNc1nc(NC2CCNCC2)nc2nc(C)cc(C)c12 [Example 588] | – | 0.1 to 1 | –
57 | [2H]C([2H])([2H])Nc1nc(NC2CCNCC2)nc2nc(C)cc(C)c12 [Example 589] | – | 1 to 10 | –
58 | Cc1cc(C)c2c(N)nc(N[C@H]3CCNC[C@@H]3F)nc2n1 [Example 590] | – | 1 to 10 | –
59 | CNc1nc(N[C@H]2CN(C)CC[C@H]2OC)nc2nc(C)cc(C)c12 [Example 591] | 100 to 3000 | 0.1 to 1 | –
60 | CNc1nc(NC2CC3CCC2N3C)nc2nc(C)cc(C)c12 (stereo not drawn) [Example 592] | 100 to 3000 | 1 to 10 | –
61 | CNc1nc(NC2CCCN3CCCC23)nc2nc(C)cc(C)c12 (stereo not drawn) [Example 597] | – | – | ++ (pC100% > 5.0 ≤ 6.0)
62 | CNc1nc(NC2CCCN3CCCC23)nc2nc(C)cc(C)c12 (stereo not drawn) [Example 598] | 100 to 3000 | – | + (pC100% > 4.0 ≤ 5.0)
63 | CNc1nc(NCC23CCCN2CCC3)nc2nc(C)cc(C)c12 [Example 600] | 0 to 100 | > 31.6 | –
